# Results reported in patent US8163731B2, “Method and dosage regimens for eliminating a chemical substance in blood” (Rhodes Technologies, priority 2008, dated 2012).
# Assays:
# [1] = test system: physical dependence to opioids and related substances; test: Multidose tapering of buprenorphine in opiate-dependent patients (cessation success, withdrawal symptoms); format: in vivo; conditions: for Successful, percent of total patients: calculated blood level reduction no greater than 5% from previous period
# Text: After several years of clinical experience in the use of buprenorphine, it became clear that a single dose in mg of buprenorphine given over a short period of time would not lead to a drug-free status. […]. If the dose is reduced rapidly, the patient reacts with both physical and emotional symptoms of withdrawal. By reducing the dose slowly, the patients experience a period where there is little or no decline in biologically available narcotic and thus feel more secure as they are not experiencing even minor withdrawal symptoms.
# Commercially available buprenorphine (Suboxone® & Subutex®) is available in strengths of 8.0 mg as well as 2.0 mg. However, that these medications would not suffice for a successful program, because the 2.0 mg dose was too large and too steep cut-off. […]. During inception of development of multidose treatment that led to the current invention, and using the then current state of art, buprenorphine troches for the treatment (not maintenance) of opiate dependence was used on a patient that was a person who was using I.V. 5-8 bags of heroin daily. They were started on 3 mg of buprenorphine and remained on this dose for three days. After a two day period without opiates, an attempt was made to administer the opiate blocker naltrexone which was intended to assure that a person is indeed drug free and remained so.
# Many alterations in treatment protocols to prevent withdrawal were made. The alterations included a greater variety of doses ranging from 8.0 to 4.0 mg administered in a deceasing amount over time. At first the dose strengths varied from 8.0 mg administered once daily with a daily reduction of 2.0 mg until to 4.0 mg, and then to 2.0 mg.
# A 6.0 mg dose was then added to the protocol. This lengthened the withdrawal period from three days to seven. This change was occasioned by the observation that the drop from 8.0 mg to 4.0 mg was all too frequently accompanied by a significant return of withdrawal symptoms and, at times, a return to use.
# Despite these alterations in the treatment protocol the results were still not what were expected. The observation was made that a cut-off of 2.0 mg would cause a return of withdrawal symptoms within 24 hrs and thus the likelihood of a return to drug use before naltrexone could be started. […] As a result, a 1.0 mg lozenges were administered
# A fractional buprenorphine dose was administered to reduce the severity of withdrawal symptoms. This strategy was in response to ongoing withdrawal symptoms following the “conclusion” of withdrawal or a “final” 3.0 mg dose of buprenorphine. To mitigate the withdrawal symptoms, a dose of 1.5 mg of buprenorphine was given to the patient. This particular treatment was unsuccessful as the ongoing withdrawal symptoms were too difficult for the patient who relapsed as a result.
# Stepwise increments were amended to proceed in the sub 1.0 mg dose range. The taper at this time was 1.0 mg, 0.75 mg, 0.5 mg, to 0.25 mg then a four day period of blank troches followed by an upward taper of troches with naltrexone going from 0.5 mg of naltrexone to 10.0 mg of naltrexone. With serial doses of 0.25 mg of buprenorphine many patients continued to report perceptible and, in some cases, intolerable withdrawal symptoms.
# As a result of the ongoing objective patient observations and patient's subjective complaints of withdrawal symptoms, a 0.1 mg dose was introduced. Additionally, a dose of 1.5 mg as well as a dose of 0.75 mg was added to the dose progression series. Although withdrawal complaints were limited, they were still present, and generally in the late phases of treatment. […] A strategy of 0.1 mg decreases in dose was implemented when the patients reached the 4.0 mg dose range (i.e., 2.0 mg twice a day) and 0.01 mg deceases in the below 1.0 mg range. The effect of this change also to extended the withdrawal period to about six to eight weeks from four weeks. […]
# [2] = test system: opiate blocker; withdrawal symptoms; test: Naltrexone given after the end of buprenorphine treatment (precipitated withdrawal)
# Procedure: Since naltrexone is administered following the cessation of narcotic, there can be no residual narcotic in a patient's system, otherwise the naltrexone will push the patient into withdrawal. Therefore, the patient must wait about a week before to start naltrexone, even with extremely low doses, doses that may be considered to be homeopathic but are high enough to cause withdrawal symptoms if the narcotic is not fully washed out.
# smoking cessation = conditions: very large reduction steps; cited from earlier work
molecule,measurement,setting,value
buprenorphine hydrochloride,"Successful, percent of total patients",[1]; 1-30 treatment days,50.7%
same,"Successful, number of patients","[1]; 1-30 treatment days, total 75",38
same,"Successful, percent of total patients",[1]; 31-60 treatment days,75.0%
same,"Successful, number of patients","[1]; 31-60 treatment days, total 52",39
same,"Successful, percent of total patients",[1]; 61-90 treatment days,90.5%
same,"Successful, number of patients","[1]; 61-90 treatment days, total 21",19
same,success rates in achieving freedom from physical dependence to opioids and related substances,[1]; specific gradually decreasing but measured doses of replacement narcotic,≥ 90%
O=C1CC[C@@]2(O)[C@H]3Cc4ccc(O)c5c4[C@@]2(CCN3CC2CC2)[C@H]1O5 [naltrexone],withdrawal symptoms caused by naltrexone,"[2]; 12.5 mg, up to five days after the end of buprenorphine treatment",causes a return of withdrawal symptoms
same,withdrawal symptoms caused by naltrexone,[2]; given after a two day period without opiates following 3 mg buprenorphine for three days,severe withdrawal symptoms
CN1CCCC1c1cccnc1 (stereo not shown) [nicotine],clinical success rates over placebo,smoking cessation,6-12%
